These results are taken from US20230405078A1, “DETECTION AND TREATMENT OF INTESTINAL FIBROSIS” (THE REGENTS OF THE UNIVERSITY OF CALIFORNIA, priority 2020, published 2023).

The test system of one assay is ERK1/2 phosphorylation. Briefly: Phospho-ERK1/2 ELISA in CCD-18Co fibroblasts. Type of assay: cell-based, human. The procedure: FIG. 27. Elafin inhibited ERK1/2 phosphorylation in intestinal fibroblasts via PAR2. (A) Serum starved CCD-18Co and primary stricturing CD patient-derived colonic fibroblasts were transiently transfected with either control siRNA or ZEB1 siRNA overnight, followed by treatment with 10 ng/ml TGF-β1 or 100 μg/ml stricturing CD patient-derived serum exosomes (CDSE) for 24 hours. (B) CCD-18Co fibroblasts were treated with DMSO, PAR1 inhibitor (SCH79797), or PAR2 inhibitor (GB88) for 2 hours. GB88 inhibited ERK1/2 phosphorylation. (C) CCD-18Co fibroblasts were pretreated with DMSO, PAR1 agonist, or PAR2 agonists for 30 minutes, followed by TGF-β1 10 ng/ml. Two hours later, elafin (1 μg/ml) and incubated for 2 hours. Elafin inhibited ERK1/2 phosphorylation, which was reversed by PAR2 agonist. […] Phospho-ERK1/2, ProCOL1A1, COL1A2, and ZEB1 protein were determined by ELISA. miR205-5p expression was determined by real-time RT-PCR. […]
FIG. 28. […] (D) Quantification of cathepsin S signals (B7-8) and control signals (A1-2 and E1-2) on the protease array using Bio-Rad Image Lab Software. […] Phospho-ERK1/2 was determined by ELISA. […] ProCOL1A1 and COL1A2 were determined by ELISA. […]
A general note: An ELISA detects its analyte on a solid surface through an enzyme-linked reagent.

The subject of assay [1] is primary stricturing CD patient-derived colonic fibroblasts. Kind of assay: Fibrogenesis in CDSE-treated primary stricturing CD patient-derived colonic fibroblasts. Type of assay: cell-based, human. The procedure: Stricturing CD patient-derived primary colonic fibroblasts (CD-HIFs) were obtained from Cleveland Clinic via material transfer agreement (MTA2020-00000154) and under
Cleveland Clinic IRB directives (IRB #17-1167). Primary non-IBD patient-derived colonic fibroblasts (H6231) were purchased from Cell Biologics. All primary colonic fibroblasts were cultured in fibroblast medium (M2267, Cell Biologics). Human colonic CCD-18Co fibroblasts (ATCC) were cultured in minimal essential medium Eagle's medium (MEM) containing 10% fetal bovine serum and 1% penicillin-streptomycin 6, 20. All fibroblasts were grown to 80% confluence and then switched to serum-free media overnight for experiments.
For activation of protease-activated receptors (PARs), fibroblasts were pretreated with 0.8% DMSO, 10 μM PAR1 agonist TRAP-6 (HY-P0078, MCE), 10 μM PAR2 agonist SLIGKV-NH2 (Protease-Activated Receptor-2, amide, HY-P0283, MCE), or 0.4 μg/ml PAR2-activating protease recombinant cathepsin S (1183-CY-010, R&D Systems) for 30 minutes. For miR205-5p activation, fibroblasts were transfected with (30 picomoles/well) either control (YM00479902) or miR205-5p miRCURY LNA mimic (YM00472340) from Qiagen via Lipofectamine 3000 transfection reagent (L3000001, ThermoFisher) in Opti-MEM (#31985062, ThermoFisher) overnight. […]

Where no end group is shown, it is not given here.

Take “Elafin: small (6 kDa) human elastase-specific protease inhibitor and antimicrobial peptide; active form SEQ ID NO: 2 (AQEPVKGPVSTKPGSCPIILIRCAMLNPPNRCLKDTDCPGIKKCCEGSCGMACFVPQ; listed as Homo sapiens)”: the ERK1/2 phosphorylation result in the assay with ERK1/2 phosphorylation (CCD-18Co fibroblasts) was “inhibited”. Also, the ProCOL1A1 protein expression entry in assay [1] (CDSE-treated, Elafin 1 μg/ml) is “inhibited”.
For the substance “SLIGKV-NH2 [PAR2 agonist, reference compound]”, in the assay on ERK1/2 phosphorylation (elafin 1 μg/ml, 2 hours), the “effect on elafin-mediated inhibition of ERK1/2 phosphorylation” value is recorded as “reversed”. For the same substance, the “effect on elafin-mediated inhibition of collagen expression” value in assay [1] (CDSE-conditioned primary human colonic fibroblasts) is given as “reversed”.
